{"source": "patent US20260324697A1", "about": "“MATERIALS AND METHODS FOR MASKING BITTERNESS” (UNIVERSITY OF FLORIDA RESEARCH FOUNDATION, INCORPORATED, priority 2023, published 2026)", "type_in_all_cases": "in vivo, persons (trained panelists)", "key": {"[1]": {"assay": "Sensory panel testing of bitterness reduction of 6 ppm quinine solutions", "details": "for Panel Score (0-15), bitterness: 0: no bitterness, 15: very bitter", "from_the_text": "(§1) Sensory testing was used to identify extracts that provide bitterness reduction and to evaluate the degree of bitterness reduction provided by specific compounds. In general, bitterness sensory testing involved providing test solutions to trained panelists who rated the perceived bitterness of test solutions. Panels consisted of three persons who can taste phenylthiocarbamide (PTC) test paper, and panelists were selected based on their ability to discriminate differences in the concentrations of bitterness. Panelists swirled an aliquot of a solution in the mouth for 15 seconds, spit out the test solution, and rated the perceived bitterness intensity of the solution on a scale of 0 to 15 (0: no bitterness, 15: very bitter). Panelists drank water after each test solution evaluation to remove the bitterness before evaluating the next solution.\n(§2) Panel testing results can be used to quantify perceived changes in bitterness. The change in perceived bitterness of an ingestible composition following addition of a bitter-masking agent is defined herein as the percent change in the bitterness panel test rating of a composition to which a bitter-masking agent has been added compared to the bitterness panel test rating of the otherwise identical composition without the bitter-masking agent. For instance, if a composition is given a bitterness intensity rating of 8, and the same composition with addition of an amount of bitter-masking agent is given a bitterness intensity rating of 6, then the bitter-masking agent has provided a perceived change in bitterness of 25%.\nCompound 1 was evaluated by sensory panel testing. A solution of 6 ppm quinine monohydrochloride dihydrate in distilled water was used as a control solution having high bitterness, and Compound 1 was added to aliquots of the control solution to provide test solutions containing 6 ppm quinine and 25, 50, or 100 ppm of Compound 1.\nCompounds 2-5 were also evaluated by sensory panel testing in the same manner as Compound 1.\nSensory panel tests were also performed to evaluate whether crude extracts from allspice would be effective at reducing bitterness. Allspice was mixed with boiling water to obtain a crude aqueous mixture, and solvent was removed from the crude aqueous mixture using rotary evaporation to obtain a crude extract. The crude extract was used without further purification. An aqueous solution containing 6 ppm quinine was used as a bitterness control solution, and the crude extract was added to aliquots of the control solution to provide test solutions containing 6 ppm quinine and 100 ppm or 1000 ppm of the crude extract. The three solutions were evaluated by a sensory panel as described above."}, "[2]": {"assay": "Sensory panel testing of bitterness reduction of 500 ppm caffeine solutions", "details": "for Panel Score (0-15), bitterness: 0: no bitterness, 15: very bitter", "from_the_text": "as §1, §2\nCompound 1 was evaluated by sensory panel testing for bitterness reduction of caffeine solutions. A solution of 500 ppm caffeine in distilled water was used as a control solution having high bitterness, and Compound 1 was added to aliquots of the control solution to provide test solutions containing 500 ppm caffeine and 25, 50, or 100 ppm of Compound 1."}, "[3]": {"assay": "Sensory panel testing of perceived sweetness of 6 ppm sucrose solutions", "details": "for Panel Score (0-15), sweetness: 0: no sweetness, 15: very sweet", "from_the_text": "Similar panel testing was done to evaluate perceived sweetness of test solutions. Panelists swirled an aliquot of test solution in the mouth for 15 seconds, spit out the test solution, and rated the perceived sweetness intensity of the test solution on a scale of 0 to 15 (0: no sweetness, 15: very sweet). Panelists drank water after each test solution evaluation before evaluating the next test solution.\nPanel testing results can be used to quantify perceived changes in sweetness in an analogous manner. The change in perceived sweetness of an ingestible composition following addition of a bitter-masking agent or other agent is defined herein as the percent change in the sweetness panel test rating of a composition to which a bitter-masking agent or other agent has been added compared to the sweetness panel test rating of the otherwise identical composition without the bitter-masking agent or other agent. For instance, if a composition is given a sweetness intensity rating of 8, and the same composition with addition of an amount of bitter-masking agent or other agent is given a sweetness intensity rating of 6, then the bitter-masking agent or other agent has provided a perceived change in sweetness of 25%.\nA similar panel test was performed to assess whether the efficacy of Compound 1 at masking bitterness is derived from imparting sweetness. A solution of 6 ppm sucrose in distilled water was used as a sweetness control solution, and Compound 1 was added to three aliquots of the sweetness control solution to provide test solutions containing 6 ppm sucrose and 25, 50, or 100 ppm of Compound 1. Panelists then evaluated the sweetness intensity of each test solution."}}, "note": "Counter-ions that a name gives are not always drawn.", "data": [{"smiles": "COc1cc(C[C@@H](O)CO)ccc1O", "note": "[Compound 1, (2R)-3-(4-hydroxy-3-methoxyphenyl) propane-1,2-diol]", "values": [{"measurement": "perceived bitterness of quinine solutions", "setting": "[1]; 6 ppm quinine, 25, 50, or 100 ppm Compound 1", "value": "markedly reduced the perceived bitterness of quinine solutions"}, {"measurement": "Panel Score (0-15), bitterness", "setting": "[1]; 25 ppm Compound 1 added to 6 ppm quinine", "value": 5.0}, {"measurement": "Panel Score (0-15), bitterness", "setting": "[1]; 50 ppm Compound 1 added to 6 ppm quinine", "value": 3.0}, {"measurement": "Panel Score (0-15), bitterness", "setting": "[1]; 100 ppm Compound 1 added to 6 ppm quinine", "value": 0.8}, {"measurement": "Panel Score (0-15), bitterness", "setting": "[2]; 25 ppm Compound 1 added to 500 ppm caffeine", "value": 3.5}, {"measurement": "Panel Score (0-15), bitterness", "setting": "[2]; 50 ppm Compound 1 added to 500 ppm caffeine", "value": 4.0}, {"measurement": "Panel Score (0-15), bitterness", "setting": "[2]; 100 ppm Compound 1 added to 500 ppm caffeine", "value": 3.8}, {"measurement": "masking of the bitterness of caffeine solutions", "setting": "[2]; 500 ppm caffeine, 25, 50, or 100 ppm Compound 1", "value": "did not significantly mask the bitterness of caffeine solutions"}, {"measurement": "contribution to perceived sweetness of the test solutions", "setting": "[3]; 6 ppm sucrose, 25, 50, or 100 ppm Compound 1", "value": "did not contribute to perceived sweetness of the test solutions"}, {"measurement": "Panel Score (0-15), sweetness", "setting": "[3]; 25 ppm Compound 1 added to 6 ppm sucrose", "value": 7.2}, {"measurement": "Panel Score (0-15), sweetness", "setting": "[3]; 50 ppm Compound 1 added to 6 ppm sucrose", "value": 6.8}, {"measurement": "Panel Score (0-15), sweetness", "setting": "[3]; 100 ppm Compound 1 added to 6 ppm sucrose", "value": 7.2}]}, {"smiles": "Cn1c(=O)c2c(ncn2C)n(C)c1=O", "note": "[caffeine, reference compound]", "values": [{"measurement": "Panel Score (0-15), bitterness", "setting": "[2]; 500 ppm caffeine alone (control)", "value": 3.0}]}, {"smiles": "C=C[C@H]1C[N@@]2CC[C@H]1C[C@H]2[C@H](O)c1ccnc2ccc(OC)cc12", "note": "[quinine, quinine monohydrochloride dihydrate, reference compound]", "values": [{"measurement": "Panel Score (0-15), bitterness", "setting": "[1]; 6 ppm quinine alone (control), Example 2", "value": 6.0}, {"measurement": "Panel Score (0-15), bitterness", "setting": "[1]; 6 ppm quinine alone (control), Example 3", "value": 6.0}]}, {"smiles": "OC[C@H]1O[C@@](CO)(O[C@H]2O[C@H](CO)[C@@H](O)[C@H](O)[C@H]2O)[C@@H](O)[C@@H]1O", "note": "[sucrose, reference compound]", "values": [{"measurement": "Panel Score (0-15), sweetness", "setting": "[3]; 6 ppm sucrose alone (control)", "value": 7.0}]}]}
